Experimental data published in patent publication US8178535B2, “Substituted sulfonamide compounds having bradykinin 1 receptor activity and use thereof as medicaments” (Gruenenthal GmbH, priority 2008, dated 2012).

Assays:
[1] = molecular target: T1, human B1R receptor (hB1R) (Homo sapiens, UniProt P46663); experiment: FLIPR Ca2+ assay (Fluo-4) on CHO K1 cells stably transfected with the human B1R gene; type: cell-based; settings: CHO-K1; test substance 10 μM; agonist Lys-Des-Arg9-bradykinin 0.5 nM; % inhibition compared to the maximum achievable inhibition
T1 construct: host or cells: CHO K1 cells
T1 sequence (P46663 1-353): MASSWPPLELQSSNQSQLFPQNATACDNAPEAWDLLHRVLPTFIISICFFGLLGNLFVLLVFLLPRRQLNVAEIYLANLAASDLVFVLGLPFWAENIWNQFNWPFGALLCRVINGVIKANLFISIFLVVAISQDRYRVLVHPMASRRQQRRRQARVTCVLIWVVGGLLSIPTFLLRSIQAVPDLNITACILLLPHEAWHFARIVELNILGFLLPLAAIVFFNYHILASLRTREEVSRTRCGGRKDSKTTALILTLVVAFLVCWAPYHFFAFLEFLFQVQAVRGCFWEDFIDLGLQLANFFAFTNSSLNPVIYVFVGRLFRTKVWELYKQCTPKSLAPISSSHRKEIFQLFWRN
Summary of the method: (§1)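 CHO K1 cells stably expressing human or rat B1R, Fluo-4 loaded, read by FLIPR (Ex 488/Em 540, peak fluorescence). Compound at 10 μM gives % activation vs agonist. After 10 min, agonist added (human: Lys-Des-Arg9-bradykinin 0.5 nM; rat: Des-Arg9-bradykinin 100 nM); % inhibition relative to maximal achievable inhibition.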

[2] = molecular target: T2, B1R receptor of rats (rB1R) (Rattus norvegicus, UniProt P97583); experiment: FLIPR Ca2+ assay (Fluo-4) on CHO K1 cells stably transfected with the B1R gene of rats; type: cell-based; settings: CHO-K1; test substance 10 μM; agonist Des-Arg9-bradykinin 100 nM; % inhibition compared to the maximum achievable inhibition
T2 construct: host or cells: CHO K1 cells
T2 sequence (P97583 1-337): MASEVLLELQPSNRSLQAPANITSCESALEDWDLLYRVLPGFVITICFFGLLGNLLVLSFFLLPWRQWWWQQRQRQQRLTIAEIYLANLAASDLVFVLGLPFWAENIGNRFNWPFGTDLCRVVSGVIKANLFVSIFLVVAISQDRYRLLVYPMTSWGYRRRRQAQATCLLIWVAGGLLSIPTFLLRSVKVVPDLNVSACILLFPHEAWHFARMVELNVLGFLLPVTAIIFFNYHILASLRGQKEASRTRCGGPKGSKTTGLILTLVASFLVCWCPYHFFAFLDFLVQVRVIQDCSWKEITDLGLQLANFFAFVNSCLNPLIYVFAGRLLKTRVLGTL
Summary of the method: as §1

O=C(CC1CCCCN1S(=O)(=O)c1cccc(C(F)(F)F)c1)N1CCn2c(CCCN3CCCC3)ccc2C1 (centres unmarked) [(17), 1-(6-(3-(pyrrolidin-1-yl)propyl)-3,4-dihydropyrrolo[1,2-a]pyrazin-2(1H)-yl)-2-(1-(3-(trifluoromethyl)phenylsulfonyl)piperidin-2-yl)ethanone]
inhibition at 10 µM [1]: 50% | inhibition at 10 µM [2]: 75%

COc1cc(C)c(S(=O)(=O)N2CCCCC2CCCC(=O)N2CCn3c(Cc4cccnc4)ccc3C2)c(C)c1 (centres unmarked) [(105), 4-(1-(4-Methoxy-2,6-dimethylphenylsulfonyl)piperidin-2-yl)-1-(6-(pyridin-3-ylmethyl)-3,4-dihydropyrrolo[1,2-a]pyrazin-2(1H)-yl)butan-1-one]
inhibition at 10 µM [1]: 64% | inhibition at 10 µM [2]: 103%

Cc1cc(C)c(S(=O)(=O)N2CCCCC2COCC(=O)N2CCn3c(CN4CCOCC4)ccc3C2c2ccccc2)c(C)c1 (centres unmarked) [(49), 2-((1-(mesitylsulfonyl)piperidin-2-yl)methoxy)-1-(6-(morpholinomethyl)-1-phenyl-3,4-dihydropyrrolo[1,2-a]pyrazin-2(1H)-yl)ethanone]
inhibition at 10 µM [1]: 103% | inhibition at 10 µM [2]: 103%

Cc1cc(C)c(S(=O)(=O)N2CCCCC2COCC(=O)N2CCn3cccc3C2c2cccnc2)c(C)c1 (centres unmarked) [(35), 2-((1-(mesitylsulfonyl)piperidin-2-yl)methoxy)-1-(1-(pyridin-3-yl)-3,4-dihydropyrrolo[1,2-a]pyrazin-2(1H)-yl)ethanone]
inhibition at 10 µM [1]: 100% | inhibition at 10 µM [2]: 97%

COc1cc(C)c(S(=O)(=O)N2CCCCC2COCC(=O)N2CCn3cc(-c4ccncc4)nc3C2)c(C)c1 (centres unmarked) [(112), 2-((1-(4-Methoxy-2,6-dimethylphenylsulfonyl)piperidin-2-yl)methoxy)-1-(2-(pyridin-4-yl)-5,6-dihydroimidazo[1,2-a]pyrazin-7(8H)-yl)ethanone]
inhibition at 10 µM [1]: 100% | inhibition at 10 µM [2]: 101%

COc1cccc(C2c3cccn3CCN2C(=O)COCC2CCCCN2S(=O)(=O)c2c(C)cc(OC)cc2C)c1 (centres unmarked) [(31), 2-((1-(4-methoxy-2,6-dimethylphenylsulfonyl)piperidin-2-yl)methoxy)-1-(1-(3-methoxyphenyl)-3,4-dihydropyrrolo[1,2-a]pyrazin-2(1H)-yl)ethanone]
inhibition at 10 µM [1]: 96% | inhibition at 10 µM [2]: 98%

Cc1cc(C)c(S(=O)(=O)N2CCCCC2COCC(=O)N2CCn3cccc3C2c2cccs2)c(C)c1 (centres unmarked) [(43), 2-((1-(mesitylsulfonyl)piperidin-2-yl)methoxy)-1-(1-(thiophen-2-yl)-3,4-dihydropyrrolo[1,2-a]pyrazin-2(1H)-yl)ethanone]
inhibition at 10 µM [1]: 96% | inhibition at 10 µM [2]: 98%

COc1cc(C)c(S(=O)(=O)N2CCCCC2CCC(=O)N2CCn3c(CCc4cccnc4)ccc3C2)c(C)c1 (centres unmarked) [(102), 3-(1-(4-Methoxy-2,6-dimethylphenylsulfonyl)piperidin-2-yl)-1-(6-(2-(pyridin-3-yl)ethyl)-3,4-dihydropyrrolo[1,2-a]pyrazin-2(1H)-yl)propan-1-one]
inhibition at 10 µM [1]: 86% | inhibition at 10 µM [2]: 101%

CCC1c2cccn2CCN1C(=O)COCC1CCCCN1S(=O)(=O)c1c(C)cc(C)cc1C (centres unmarked) [(55), 1-(1-ethyl-3,4-dihydropyrrolo[1,2-a]pyrazin-2(1H)-yl)-2-((1-(mesitylsulfonyl)piperidin-2-yl)methoxy)ethanone]
inhibition at 10 µM [1]: 98% | inhibition at 10 µM [2]: 103%

COc1cc(C)c(S(=O)(=O)N2CCCCC2COCC(=O)N2CCn3cccc3C2CCc2ccccc2)c(C)c1 (centres unmarked) [(60), 2-((1-(4-methoxy-2,6-dimethylphenylsulfonyl)piperidin-2-yl)methoxy)-1-(1-phenethyl-3,4-dihydropyrrolo[1,2-a]pyrazin-2(1H)-yl)ethanone]
inhibition at 10 µM [1]: 87% | inhibition at 10 µM [2]: 102%

COc1cc(C)c(S(=O)(=O)N2CCCCC2CCC(=O)N2CCn3cc(CCc4ccncc4)nc3C2)c(C)c1 (centres unmarked) [(117), 3-(1-(4-Methoxy-2,6-dimethylphenylsulfonyl)piperidin-2-yl)-1-(2-(2-(pyridin-4-yl)ethyl)-5,6-dihydroimidazo[1,2-a]pyrazin-7(8H)-yl)propan-1-one]
inhibition at 10 µM [1]: 82% | inhibition at 10 µM [2]: 98%

CN1CCN(Cc2ccc3n2CCN(C(=O)COCC2CCc4ccccc4N2S(=O)(=O)c2ccc(Cl)c(Cl)c2)C3)CC1 (centres unmarked) [(11), 2-((1-(3,4-dichlorophenylsulfonyl)-1,2,3,4-tetrahydroquinolin-2-yl)methoxy)-1-(6-((4-methylpiperazin-1-yl)methyl)-3,4-dihydropyrrolo[1,2-a]pyrazin-2(1H)-yl)ethanone]
inhibition at 10 µM [1]: 100% | inhibition at 10 µM [2]: 56%

CN1CCN(CCCc2ccc3n2CCN(C(=O)CC2CCCCN2S(=O)(=O)c2cccc(C(F)(F)F)c2)C3)CC1 (centres unmarked) [(15), 1-(6-(3-(4-methylpiperazin-1-yl)propyl)-3,4-dihydropyrrolo[1,2-a]pyrazin-2(1H)-yl)-2-(1-(3-(trifluoromethyl)phenylsulfonyl)piperidin-2-yl)ethanone]
inhibition at 10 µM [1]: 46% | inhibition at 10 µM [2]: 100%

COc1cc(C)c(S(=O)(=O)N2CCCCC2COCC(=O)N2CCn3c(CN4CCN(C)CC4)ccc3C2)c(C)c1 (centres unmarked) [(4), 2-((1-(4-methoxy-2,6-dimethylphenylsulfonyl)piperidin-2-yl)methoxy)-1-(6-((4-methylpiperazin-1-yl)methyl)-3,4-dihydropyrrolo[1,2-a]pyrazin-2(1H)-yl)ethanone]
inhibition at 10 µM [1]: 105% | inhibition at 10 µM [2]: 101%

CCC1c2cccn2CCN1C(=O)COCC1CCCCN1S(=O)(=O)c1c(C)cc(OC)cc1C (centres unmarked) [(70), 1-(1-ethyl-3,4-dihydropyrrolo[1,2-a]pyrazin-2(1H)-yl)-2-((1-(4-methoxy-2,6-dimethylphenylsulfonyl)piperidin-2-yl)methoxy)ethanone]
inhibition at 10 µM [1]: 102% | inhibition at 10 µM [2]: 103%

COc1cc(C)c(S(=O)(=O)N2CCCCC2CCCC(=O)N2CCn3cc(Cc4ccncc4)nc3C2)c(C)c1 (centres unmarked) [(119), 4-(1-(4-Methoxy-2,6-dimethylphenylsulfonyl)piperidin-2-yl)-1-(2-(pyridin-4-ylmethyl)-5,6-dihydroimidazo[1,2-a]pyrazin-7(8H)-yl)butan-1-one]
inhibition at 10 µM [1]: 90% | inhibition at 10 µM [2]: 107%

COc1cc(C)c(S(=O)(=O)N2CCCCC2COCC(=O)N2CCn3c(CN(C)C)ccc3C2CCc2ccccc2)c(C)c1 (centres unmarked) [(66), 1-(6-((dimethylamino)methyl)-1-phenethyl-3,4-dihydropyrrolo[1,2-a]pyrazin-2(1H)-yl)-2-((1-(4-methoxy-2,6-dimethylphenylsulfonyl)piperidin-2-yl)methoxy)ethanone]
inhibition at 10 µM [1]: 102% | inhibition at 10 µM [2]: 101%

COc1cc(C)c(S(=O)(=O)N2CCCCC2COCC(=O)N2CCn3c(CN4CCOCC4)ccc3C2c2ccccc2)c(C)c1 (centres unmarked) [(64), 2-((1-(4-methoxy-2,6-dimethylphenylsulfonyl)piperidin-2-yl)methoxy)-1-(6-(morpholinomethyl)-1-phenyl-3,4-dihydropyrrolo[1,2-a]pyrazin-2(1H)-yl)ethanone]
inhibition at 10 µM [1]: 103% | inhibition at 10 µM [2]: 102%

COc1cc(C)c(S(=O)(=O)N2CCCCC2CCCC(=O)N2CCn3c(CCc4cccnc4)ccc3C2)c(C)c1 (centres unmarked) [(103), 4-(1-(4-Methoxy-2,6-dimethylphenylsulfonyl)piperidin-2-yl)-1-(6-(2-(pyridin-3-yl)ethyl)-3,4-dihydropyrrolo[1,2-a]pyrazin-2(1H)-yl)butan-1-one]
inhibition at 10 µM [1]: 95% | inhibition at 10 µM [2]: 100%

COc1cc(C)c(S(=O)(=O)N2CCCCC2CCCC(=O)N2CCn3c(ccc3-c3cccnc3)C2)c(C)c1 (centres unmarked) [(92), 4-(1-(4-Methoxy-2,6-dimethylphenylsulfonyl)piperidin-2-yl)-1-(6-(pyridin-3-yl)-3,4-dihydropyrrolo[1,2-a]pyrazin-2(1H)-yl)butan-1-one]
inhibition at 10 µM [1]: 91% | inhibition at 10 µM [2]: 99%

COc1cc(C)c(S(=O)(=O)N2CCCCC2COCC(=O)N2CCn3c(Cc4cccnc4)ccc3C2)c(C)c1 (centres unmarked) [(111), 2-((1-(4-Methoxy-2,6-dimethylphenylsulfonyl)piperidin-2-yl)methoxy)-1-(6-(pyridin-3-ylmethyl)-3,4-dihydropyrrolo[1,2-a]pyrazin-2(1H)-yl)ethanone]
inhibition at 10 µM [1]: 100% | inhibition at 10 µM [2]: 98%

COc1cc(C)c(S(=O)(=O)N2CCCCC2CCC(=O)N2CCn3cc(-c4ccncc4)nc3C2)c(C)c1 (centres unmarked) [(114), 3-(1-(4-Methoxy-2,6-dimethylphenylsulfonyl)piperidin-2-yl)-1-(2-(pyridin-4-yl)-5,6-dihydroimidazo[1,2-a]pyrazin-7(8H)-yl)propan-1-one]
inhibition at 10 µM [1]: 79% | inhibition at 10 µM [2]: 98%
